The source of these data is US10280198B2, “Therapeutic agents for reducing parathyroid hormone levels” (KAI PHARMACEUTICALS, INC., priority 2009, dated 2019).

Each structure is given as a SMILES string. Read-outs that look alike come from different tables or passages of the source. Square brackets hold non-standard residues; d marks the D form. Peptide text beside a SMILES is read from it.

One data set deals with plasma PTH. The data set is described as follows: In vivo PTH lowering after IV bolus in isoflurane-anesthetized normal Sprague Dawley rats. On the set-up: species or system rat. The settings on record: for % PTH reduction of baseline at 1 hour post IV administration of 0.5 mg/kg compound: isoflurane-anesthetized normal rats, 0.5 mg/kg IV; for 0.5 mg/kg IV bolus % PTH AUC of saline control: normal rats, AUC 1-4 h. Here is the method: The peptides were administered intravenously at a dose of 0.5 mg/kg into isoflurane-anesthetized normal Sprague Dawley rats. A control group of rats was treated with saline. Blood was drawn prior to dosing and every hour for 4 hours. Rats were maintained under isoflurane anesthesia for the entire study. […] Percent PTH reduction was calculated according to the following formula: AUCcmpd treated/AUCsaline control*100.
An intravenous (IV) bolus of saline was used as a control. Plasma (K2EDTA) PTH levels were assessed prior to dosing and 1, 2, 3 and 4 hours after dosing. Rats were maintained under isoflurane anesthesia for the entire study. […] In FIG. 2B, PTH is shown as percent of the baseline pre-dose value.
A series of compounds having an L-amino acid residue substituted for a D-amino acid residue were prepared. The compounds were administered as an IV bolus to normal Sprague Dawley rats at a dose of 0.5 mg/kg. An intravenous (IV) bolus of saline was used as a control. […] Rats were maintained under isoflurane anesthesia for the entire study.

The test system of data set [1] is rat peritoneal mast cells. Kind of data set: In vitro histamine induction in rat peritoneal mast cells. Type of data set: cell-based. The protocol: To further evaluate the relationship between compound structure and histamine release, a series of compounds was prepared and assessed for their ability to trigger induction of histamine in an in vitro assay using rat peritoneal mast cells. In this assay, compounds are incubated at 10 μM for 15 minutes at 37° C. with cells isolated from peritoneal lavage of SD rats. Following incubation, cell medium is collected and histamine is determined.
Accordingly, and as can be appreciated in view of the PTH data and the histamine data described hereinabove, in one embodiment, a compound that has activity to decrease PTH level in a subject in the absence of a histamine response is contemplated. In certain embodiments, absence of a histamine response intends a dose of the compound that produces a less than 10-fold, more preferably 8-fold, still more preferably 5-fold, and even still more preferably 3-fold, increase in histamine, measured in vitro in an assay as described herein, where the fold change is determined based on histamine levels before incubation with the compound and after 15 minutes incubation with compound. In a specific embodiment, the histamine response is determined in an in vitro assay using rat peritoneal mast cells isolated from peritoneal lavage of normal Sprague Dawley rats, and where the fold change is determined based on histamine levels before incubation with the compound and after 15 minutes incubation with compound. In the studies conducted herein, the in vitro evaluation of histamine release was performed using isolated rat peritoneal mast cells isolated by peritoneal lavage using cold HBSS+25 mM HEPES pH 7.4 containing heparin (5 u/mL). Cells were washed twice in stimulation buffer (HBSS+25 mM HEPES pH 7.4) and incubated with 10 μM of compound in stimulation buffer (HBSS+25 mM HEPES pH 7.4) for 15 minutes in a 96-well plate ([…]) at 37° C. Cell supernatant was analyzed for histamine using histamine EIA kit (Cayman #589651).
For in vitro evaluation of histamine release, isolated rat peritoneal mast cells were isolated by performing peritoneal lavage using cold HBSS+25 mM HEPES pH 7.4 containing heparin (5 u/mL). Cells were washed twice in stimulation buffer (HBSS+25 mM HEPES pH 7.4) and incubated with 10 μM of compound in stimulation buffer (HBSS+25 mM HEPES pH 7.4) for 15 minutes in a 96-well plate (10^6/well) at 37° C. Cell supernatant was analyzed for histamine using histamine EIA kit (Cayman #589651).

For `CC(=O)N[C@H](CS)C(=O)N[C@H](CCCNC(=N)N)C(=O)N[C@H](CCCNC(=N)N)C(=O)N[C@H](C)C(=O)N[C@H](C)C(=O)N[C@H](CCCNC(=N)N)C(=O)N[C@H](CCCNC(=N)N)C(N)=O` [SEQ ID NO: 17, Ac-crraarr-NH2] (Ac-[dC][dR][dR][dA][dA][dR][dR]-NH2), in the data set on plasma PTH (Table 2), the “% PTH reduction of baseline at 1 hour post IV administration of 0.5 mg/kg compound” value (shortened to “% PTH reduction of baseline”) was 39% and the “0.5 mg/kg IV bolus % PTH AUC of saline control” value (shortened to “0.5 mg/kg IV bolus % PTH AUC”) came to 102%. Also, the “Histamine in vitro Fold change of non-treated at 10 uM” value in data set [1] was 1.3 fold.
On to `CC(=O)N[C@H](CS)C(=O)N[C@H](CCCNC(=N)N)C(=O)N[C@H](C)C(=O)N[C@H](CCCNC(=N)N)C(=O)N[C@H](C)C(=O)N[C@H](CCCNC(=N)N)C(=O)N[C@H](CCCNC(=N)N)C(N)=O` [SEQ ID NO: 18, Ac-crararr-NH2] (Ac-[dC][dR][dA][dR][dA][dR][dR]-NH2), for which, in the data set on plasma PTH (Table 2), the “% PTH reduction of baseline” value is on record as 72% and the “0.5 mg/kg IV bolus % PTH AUC” value stood at 87%. Further, the “Histamine in vitro Fold change of non-treated at 10 uM” value in data set [1] was found to be 1.4 fold.
With `CC(=O)N[C@H](CS)C(=O)N[C@H](CCCNC(=N)N)C(=O)N[C@H](CCCNC(=N)N)C(=O)N[C@H](CCCNC(=N)N)C(=O)N[C@H](C)C(=O)N[C@H](C)C(=O)N[C@H](CCCNC(=N)N)C(N)=O` [SEQ ID NO: 21, Ac-crrraar-NH2] (Ac-[dC][dR][dR][dR][dA][dA][dR]-NH2), in the data set with plasma PTH (Table 2), the “% PTH reduction of baseline” value worked out at 36% and the “0.5 mg/kg IV bolus % PTH AUC” value is 50%. Also, in data set [1], the “Histamine in vitro Fold change of non-treated at 10 uM” value was 1.0 fold.
Turning to `CC(=O)N[C@H](CS)C(=O)N[C@H](C)C(=O)N[C@H](C)C(=O)N[C@H](CCCNC(=N)N)C(=O)N[C@H](CCCNC(=N)N)C(=O)N[C@H](CCCNC(=N)N)C(=O)N[C@H](CCCNC(=N)N)C(N)=O` [SEQ ID NO: 22, Ac-caarrrr-NH2] (Ac-[dC][dA][dA][dR][dR][dR][dR]-NH2), in the data set with plasma PTH (Table 2), the “% PTH reduction of baseline” value is listed as 24% and the “0.5 mg/kg IV bolus % PTH AUC” value came to 48%. The “Histamine in vitro Fold change of non-treated at 10 uM” value in data set [1] was found to be 1.2 fold.
In the same order, the values of `CC(=O)N[C@H](CS)C(=O)N[C@H](CCCNC(=N)N)C(=O)N[C@H](C)C(=O)N[C@H](C)C(=O)N[C@H](CCCNC(=N)N)C(=O)N[C@H](CCCNC(=N)N)C(=O)N[C@H](CCCNC(=N)N)C(N)=O` [SEQ ID NO: 24, Ac-craarrr-NH2] (Ac-[dC][dR][dA][dA][dR][dR][dR]-NH2) are 8%, 9% and 1.0 fold.
Regarding `CC(=O)N[C@H](CS)C(=O)N[C@H](C)C(=O)N[C@H](CCCNC(=N)N)C(=O)N[C@H](CCCNC(=N)N)C(=O)N[C@H](CCCNC(=N)N)C(=O)N[C@H](Cc1ccccc1)C(=O)N[C@H](CCCNC(=N)N)C(N)=O` [SEQ ID NO: 83, Ac-carrrfr-NH2] (Ac-[dC][dA][dR][dR][dR][dF][dR]-NH2), the “0.5 mg/kg IV bolus % PTH AUC” value in the data set with plasma PTH (Table 6) came to 177%. Also, in data set [1], the “Histamine in vitro Fold change of non-treated at 10 uM” value came to 4.0 fold.
As for `CC[C@@H](C)[C@@H](NC(=O)[C@@H](CCCNC(=N)N)NC(=O)[C@@H](CCCNC(=N)N)NC(=O)[C@@H](CCCNC(=N)N)NC(=O)[C@@H](C)NC(=O)[C@@H](CS)NC(C)=O)C(=O)N[C@H](CCCNC(=N)N)C(N)=O` [SEQ ID NO: 84, Ac-carrrir-NH2] (Ac-[dC][dA][dR][dR][dR][dI][dR]-NH2), the “0.5 mg/kg IV bolus % PTH AUC” value in the data set with plasma PTH (Table 6) was determined as 161%. Also, the “Histamine in vitro Fold change of non-treated at 10 uM” value in data set [1] is recorded as 1.8 fold.
For `CC(=O)N[C@H](CS)C(=O)N[C@H](C)C(=O)N[C@H](CCCNC(=N)N)C(=O)N[C@H](CCCNC(=N)N)C(=O)N[C@H](CCCNC(=N)N)C(=O)N[C@H](CC(C)C)C(=O)N[C@H](CCCNC(=N)N)C(N)=O` [SEQ ID NO: 85, Ac-carrrlr-NH2] (Ac-[dC][dA][dR][dR][dR][dL][dR]-NH2), in the data set with plasma PTH (Table 6), the “0.5 mg/kg IV bolus % PTH AUC” value is recorded as 140%. In addition, the “Histamine in vitro Fold change of non-treated at 10 uM” value in data set [1] (Table 9, 10 μM, 15 minutes, 37° C.) is 2.5 fold.
`CC(=O)N[C@H](CS)C(=O)N[C@H](C)C(=O)N[C@H](CCCNC(=N)N)C(=O)N[C@H](CCCNC(=N)N)C(=O)N[C@H](CCCNC(=N)N)C(=O)N[C@@H](C(=O)N[C@H](CCCNC(=N)N)C(N)=O)C(C)C` [SEQ ID NO: 87, Ac-carrrvr-NH2] (Ac-[dC][dA][dR][dR][dR][dV][dR]-NH2): the “0.5 mg/kg IV bolus % PTH AUC” value with plasma PTH (Table 6) turned out to be 79%. Also, the “Histamine in vitro Fold change of non-treated at 10 uM” value in data set [1] worked out at 1.2 fold.
The corresponding values for `CC(=O)N[C@H](CS)C(=O)N[C@H](C)C(=O)N[C@H](CCCNC(=N)N)C(=O)N[C@H](CCCNC(=N)N)C(=O)N[C@H](CCCNC(=N)N)C(=O)N1CCC[C@@H]1C(=O)N[C@H](CCCNC(=N)N)C(N)=O` [SEQ ID NO: 88, Ac-carrrpr-NH2] (Ac-[dC][dA][dR][dR][dR][dP][dR]-NH2) are 76% and 1.0 fold.
With `CC(=O)N[C@H](CS)C(=O)N[C@H](C)C(=O)N[C@H](CCCNC(=N)N)C(=O)N[C@H](CCCNC(=N)N)C(=O)N[C@H](CCCNC(=N)N)C(=O)N[C@H](Cc1c[nH]cn1)C(=O)N[C@H](CCCNC(=N)N)C(N)=O` [SEQ ID NO: 89, Ac-carrrhr-NH2] (Ac-[dC][dA][dR][dR][dR][dH][dR]-NH2), the “0.5 mg/kg IV bolus % PTH AUC” value with plasma PTH (Table 6) amounted to 48%. Besides, the “Histamine in vitro Fold change of non-treated at 10 uM” value in data set [1] amounted to 2.0 fold.
On to `CC(=O)N[C@H](CS)C(=O)N[C@H](C)C(=O)N[C@H](CCCNC(=N)N)C(=O)N[C@H](CCCNC(=N)N)C(=O)N[C@H](CCCNC(=N)N)C(=O)N[C@H](CCC(N)=O)C(=O)N[C@H](CCCNC(=N)N)C(N)=O` [SEQ ID NO: 90, Ac-carrrqr-NH2] (Ac-[dC][dA][dR][dR][dR][dQ][dR]-NH2), for which, in the data set with plasma PTH (Table 6), the “0.5 mg/kg IV bolus % PTH AUC” value turned out to be 41%. For the same compound, the “Histamine in vitro Fold change of non-treated at 10 uM” value in data set [1] is 0.9 fold.
Turning to `CC(=O)N[C@H](CS)C(=O)N[C@H](C)C(=O)N[C@H](CCCNC(=N)N)C(=O)N[C@H](CCCNC(=N)N)C(=O)N[C@H](CCCNC(=N)N)C(=O)N[C@@H](C(=O)N[C@H](CCCNC(=N)N)C(N)=O)[C@H](C)O` [SEQ ID NO: 91, Ac-carrrtr-NH2] (Ac-[dC][dA][dR][dR][dR][dT][dR]-NH2), the “0.5 mg/kg IV bolus % PTH AUC” value in the data set on plasma PTH (Table 6) is 18%. Also, in data set [1], the “Histamine in vitro Fold change of non-treated at 10 uM” value came to 1.7 fold.
As for `CC(=O)N[C@H](CS)C(=O)N[C@H](C)C(=O)N[C@H](CCCNC(=N)N)C(=O)N[C@H](CCCNC(=N)N)C(=O)N[C@H](CCCNC(=N)N)C(=O)N[C@H](CO)C(=O)N[C@H](CCCNC(=N)N)C(N)=O` [SEQ ID NO: 92, Ac-carrrsr-NH2] (Ac-[dC][dA][dR][dR][dR][dS][dR]-NH2), the “0.5 mg/kg IV bolus % PTH AUC” value in the data set on plasma PTH (Table 6) was 6%. In addition, in data set [1], the “Histamine in vitro Fold change of non-treated at 10 uM” value is listed as 1.2 fold.
Take `CC(=O)N[C@H](CS)C(=O)N[C@H](C)C(=O)N[C@H](CCCNC(=N)N)C(=O)N[C@H](CCCNC(=N)N)C(=O)N[C@H](CCCNC(=N)N)C(=O)NCC(=O)N[C@H](CCCNC(=N)N)C(N)=O` [SEQ ID NO: 93, Ac-carrrGr-NH2] (Ac-[dC][dA][dR][dR][dR]G[dR]-NH2): in the data set on plasma PTH (Table 6), the “0.5 mg/kg IV bolus % PTH AUC” value amounted to 5%. Also, in data set [1], the “Histamine in vitro Fold change of non-treated at 10 uM” value amounted to 0.9 fold.
In the same order, the values of `CC(=O)N[C@H](CS)C(=O)NCC(=O)N[C@H](CCCNC(=N)N)C(=O)N[C@H](CCCNC(=N)N)C(=O)N[C@H](CCCNC(=N)N)C(=O)N[C@H](C)C(=O)N[C@H](CCCNC(=N)N)C(N)=O` [SEQ ID NO: 95, Ac-cGrrrar-NH2] (Ac-[dC]G[dR][dR][dR][dA][dR]-NH2) are 45% and 1.5 fold.
Turning to `CC[C@@H](C)[C@@H](NC(=O)[C@@H](CS)NC(C)=O)C(=O)N[C@H](CCCNC(=N)N)C(=O)N[C@H](CCCNC(=N)N)C(=O)N[C@H](CCCNC(=N)N)C(=O)N[C@H](C)C(=O)N[C@H](CCCNC(=N)N)C(N)=O` [SEQ ID NO: 96, Ac-cirrrar-NH2] (Ac-[dC][dI][dR][dR][dR][dA][dR]-NH2), the “0.5 mg/kg IV bolus % PTH AUC” value in the data set with plasma PTH (Table 6) turned out to be 33%. In data set [1], the “Histamine in vitro Fold change of non-treated at 10 uM” value stood at 3.0 fold.
